Measured values as given in paper PMC7822874, “Chemoprotective antimalarials identified through quantitative high-throughput screening of Plasmodium blood and liver stage parasites” (Scientific Reports, 2021).
“And” between values parts separate entries of the source, which are not always exact repeats. Equal values may be shown once.

Experiments:
[1] = system: T1, Plasmodium falciparum Dd2-attB-ScDHODH (transgenic line expressing yeast DHODH), asexual blood stages; test: organism not typed; design: replicate k of 3 (each line is one of three independent assays; the three lines of one compound and parasite line follow each other); details: 72 h, n = 1; for AC50: read-out: Individual replicates / Log AC50 (converted)
T1 construct: Dd2-attB-ScDHODH, the transgenic line that expresses yeast DHODH
Experimental: (§1) The overexpression of the fumarate-dependent yeast DHODH confers resistance to compounds that inhibit the parasite mETC, or the parasite DHODH enzyme that depends on ubiquinone provided by the parasite mETC. Assays were performed in three independent assays on a subset of compounds, and differences between the Dd2-attB parental line and the ScDHODH transgenic line were analyzed using two-sided Student’s t-tests.

[2] = system: T2, Plasmodium falciparum Dd2-attB (parental line), asexual blood stages; test: microbe, parasite or virus in culture; design: replicate k of 3 (each line is one of three independent assays; the three lines of one compound and parasite line follow each other); details: n = 1; for Individual replicates / Log AC50 (M): 72 h; for AC50: Plasmodium falciparum, DD2, 72 h, read-out: Individual replicates / Log AC50 (converted)
T2 construct: Dd2-attB, the isogenic parental line
Experimental: as §1

For Oc1ccc(CNc2cccc(F)c2)c2cccnc12 [NCGC00184892-01], the “Individual replicates / Log AC50 (M)” value [1] was -4.7486 Log AC50 (M), the AC50 [1] was 17.8 µM and the “Individual replicates / Log AC50 (M)” value [2] was -4.7486 Log AC50 (M) and -4.8486 Log AC50 (M). The AC50 [2] was 12.6 µM.

In the case of Oc1ccc(CNc2ccc(F)cc2Cl)c2cccnc12 [NCGC00184893-01], the “Individual replicates / Log AC50 (M)” value [1] was -4.7986 Log AC50 (M), the AC50 [1] was 14.2 µM and the “Individual replicates / Log AC50 (M)” value [2] was -4.7986 Log AC50 (M) and -4.8486 Log AC50 (M). For the same compound, the AC50 [2] was 15.9 µM.

For Oc1ccc(CNc2ccc(F)cc2F)c2cccnc12 [NCGC00184894-01], the “Individual replicates / Log AC50 (M)” value [1] was -4.8486 Log AC50 (M), the AC50 [1] was 17.8 µM and the “Individual replicates / Log AC50 (M)” value [2] was -4.9486 Log AC50 (M) and -5.0486 Log AC50 (M). It also gave an AC50 [2] of 14.2 µM.

Cc1ccc(NCc2ccc(O)c3ncccc23)c(F)c1 [NCGC00184895-01] was tested, and the “Individual replicates / Log AC50 (M)” value [1] was -4.7486 Log AC50 (M), the AC50 [1] was 15.9 µM and the “Individual replicates / Log AC50 (M)” value [2] was -4.7986 Log AC50 (M). It also gave an AC50 [2] of 17.8 µM.

In the case of Oc1ccc(CNc2ccccc2C(F)(F)F)c2cccnc12 [NCGC00184897-01], the “Individual replicates / Log AC50 (M)” value [1] was -4.8486 Log AC50 (M) and -4.7486 Log AC50 (M), the AC50 [1] was 15.9 µM and the “Individual replicates / Log AC50 (M)” value [2] was -4.8986 Log AC50 (M) and -4.7986 Log AC50 (M). The AC50 [2] was 12.6 µM.

For Oc1ccc(CNc2ccccn2)c2cccnc12 [NCGC00184898-01], the “Individual replicates / Log AC50 (M)” value [1] was -4.7486 Log AC50 (M), the AC50 [1] was 14.2 µM and the “Individual replicates / Log AC50 (M)” value [2] was -4.7486 Log AC50 (M) and -4.6986 Log AC50 (M). It also gave an AC50 [2] of 17.8 µM.

In the case of Oc1ccc(/C=C/c2ccccc2)c2cccnc12 [NCGC00184900-01], the “Individual replicates / Log AC50 (M)” value [1] was -5.1986 Log AC50 (M) and -4.7986 Log AC50 (M), the “Individual replicates / Log AC50 (M)” value [2] was -5.2486 Log AC50 (M) and -5.2986 Log AC50 (M) and the AC50 [2] was 6.33 µM.

Oc1ccc(-c2ccccc2F)c2cccnc12 [NCGC00184901-01] was tested, and the “Individual replicates / Log AC50 (M)” value [1] was -4.8486 Log AC50 (M) and -4.7986 Log AC50 (M), the AC50 [1] was 14.2 µM and the “Individual replicates / Log AC50 (M)” value [2] was -4.8486 Log AC50 (M) and -4.8986 Log AC50 (M). It also gave an AC50 [2] of 15.9 µM.

With Oc1ccc(CCc2ccccc2)c2cccnc12 [NCGC00184902-01] the “Individual replicates / Log AC50 (M)” value [1] was -4.8486 Log AC50 (M) and -5.1486 Log AC50 (M), the AC50 [1] was 7.1 µM and the “Individual replicates / Log AC50 (M)” value [2] was -5.2486 Log AC50 (M). It also gave an AC50 [2] of 7.1 µM.

Oc1ccc(/C=C/c2ccccc2F)c2cccnc12 [NCGC00184903-01] was tested, and the “Individual replicates / Log AC50 (M)” value [1] was -4.9986 Log AC50 (M) and -5.1986 Log AC50 (M), the AC50 [1] was 6.33 µM and the “Individual replicates / Log AC50 (M)” value [2] was -5.2486 Log AC50 (M) and -5.1486 Log AC50 (M). The AC50 [2] was 6.33 µM.

With Oc1ccc(CCc2c(F)cccc2F)c2cccnc12 [NCGC00184906-01] the “Individual replicates / Log AC50 (M)” value [1] was -5.0486 Log AC50 (M) and -5.1486 Log AC50 (M), the AC50 [1] was 6.33 µM and the “Individual replicates / Log AC50 (M)” value [2] was -5.2486 Log AC50 (M) and -5.2986 Log AC50 (M). For the same compound, the AC50 [2] was 5.64 µM.

With Oc1ccc(Oc2ccccc2F)c2cccnc12 [NCGC00184907-01] the “Individual replicates / Log AC50 (M)” value [1] was -4.8986 Log AC50 (M) and -4.9486 Log AC50 (M), the AC50 [1] was 14.2 µM and the “Individual replicates / Log AC50 (M)” value [2] was -4.9986 Log AC50 (M) and -5.0486 Log AC50 (M). The AC50 [2] was 8.94 µM.

With Oc1ccc(CNCc2ccccc2F)c2cccnc12 [NCGC00184908-01] the “Individual replicates / Log AC50 (M)” value [1] was -4.7486 Log AC50 (M) and -5.1486 Log AC50 (M) (2×) and the “Individual replicates / Log AC50 (M)” value [2] was -5.3986 Log AC50 (M) and -5.0486 Log AC50 (M) and -5.1986 Log AC50 (M).

With CN(C)c1cnc2c(O)ccc(C(=O)O)c2c1 [NCGC00189499-01] the “Individual replicates / Log AC50 (M)” value [1] was -4.9486 Log AC50 (M), the AC50 [1] was 14.2 µM and the “Individual replicates / Log AC50 (M)” value [2] was -4.7486 Log AC50 (M). For the same compound, the AC50 [2] was 14.2 µM.

In the case of CN(C)CCCNC(=O)c1ccc(-c2cnc3c(O)cccc3c2)cc1 [NCGC00189502-01], the “Individual replicates / Log AC50 (M)” value [1] was -5.0486 Log AC50 (M) and -4.8986 Log AC50 (M), the AC50 [1] was 7.97 µM and the “Individual replicates / Log AC50 (M)” value [2] was -4.9986 Log AC50 (M). The AC50 [2] was 7.1 µM.

For CN1CCN(C(=O)c2ccc(-c3cnc4c(O)ccc(C(=O)O)c4c3)cc2)CC1 [NCGC00189504-01], the “Individual replicates / Log AC50 (M)” value [1] was -4.7486 Log AC50 (M), the AC50 [1] was 15.9 µM and the “Individual replicates / Log AC50 (M)” value [2] was -4.7986 Log AC50 (M). The AC50 [2] was 17.8 µM.

With COC(=O)c1ccc(O)c2ncc(-c3ccc(C(=O)N4CCN(C)CC4)cc3)cc12 [NCGC00189505-01] the “Individual replicates / Log AC50 (M)” value [1] was -4.8986 Log AC50 (M) and -5.1486 Log AC50 (M), the AC50 [1] was 6.33 µM and the “Individual replicates / Log AC50 (M)” value [2] was -5.2486 Log AC50 (M) and -5.0486 Log AC50 (M). The AC50 [2] was 5.03 µM.

COC(=O)c1ccc(O)c2ncc(N(C)C)cc12 [NCGC00189506-01] was tested, and the “Individual replicates / Log AC50 (M)” value [1] was -5.0486 Log AC50 (M), the AC50 [1] was 14.2 µM and the “Individual replicates / Log AC50 (M)” value [2] was -5.0986 Log AC50 (M) and -5.1486 Log AC50 (M). For the same compound, the AC50 [2] was 7.97 µM.
